From the NIST ThermoML archive (doi:10.1016/j.fluid.2013.02.001)
± gives the expanded uncertainty stated by the source.

Conditions: Crystal; Phase equilibration

## O=C([O-])CCP(=O)(O)c1ccccc1.[Na+] [monosodium 3-(hydroxyphenylphosphinyl)propanoate]
  Normal melting temperature: 231 ± 0.7 °C
